This is an account of results in publication PMC8215115, “Systemically Achievable Doses of Beer Flavonoids Induce Estrogenicity in Human Endometrial Cells and Cause Synergistic Effects With Selected Pesticides” (Frontiers in Nutrition, 2021).

Entries after “also recorded” stand apart in the source; their conditions may differ. Bounds are passed on as bounds.

For data set [1], the system named is ER-dependent induction of ALP expression in Ishikawa cells. Briefly: Alkaline phosphatase (ALP) assay for estrogenicity. It is filed as cell-based, human. Particulars: for lowest concentration inducing ALP expression (starting from): single compound; for plateau of enzymatic (ALP) activity: relative to 1 nM E2 = 100%. An excerpt: In the present study, five exemplary pesticides (Figure 1B) were selected based on at least one published report of them acting as ER agonists, among them the publicly discussed herbicide glyphosate (GLP). Alkaline phosphatase (ALP) expression in Ishikawa cells was used as a natural reporter gene system for estrogenicity. On the contrary to some other in vitro test systems, this human endometrial cancer cell line expresses both, ER-α and ER-β, and thus facilitates the observation of interactions between chemicals acting as agonists to different receptor isoforms ([22]). Measuring the ALP-catalyzed conversion rate of 4-nitrophenyl phosphate to 4-nitrophenol as a marker for enzyme expression and thus ER activation, the test compounds were tested individually and in combination to generally address the concern of cumulative effects within this class of pesticides. To enable a direct comparison of effect strength, the same test system was used to determine the estrogenicity of a mixture of the most important hop polyphenols, resembling their respective concentration ratios in beer. Lastly, the two mixtures were combined in different ratios to assess potential combinatory effects toward ER activation.
ALP assays were performed as recently described ([23]). Briefly, 10,000 Ishikawa cells per well were seeded in 96-well plates and allowed to attach for 48 h in assay medium (phenol red - free DMEM/F-12 supplemented with 1% (v/v) CD-FBS and 1% (v/v) P/S). Stock solutions were prepared by solving test compounds in DMSO, which were then diluted to the test concentrations in assay medium, resulting in a final DMSO concentration of 0.1–0.2% (v/v) (depending on the number of mixed compounds in incubation solutions, but consistently reflected by the same concentration in the respective solvent control). Cells were incubated with incubation solutions containing the test compounds or combinations thereof for another 48 h. Subsequently, cells were washed with PBS and lyzed by shock-freezing. ALP activity was determined by monitoring the conversion of 4-nitrophenyl phosphate to 4-nitrophenol photometrically at 405 nm with a PerkinElmer Victor 3V^TM plate reader. The slope of the obtained dose-response curves was taken as a measure for the ER-dependent induction of ALP expression.
In brief, this method uses the mass-action law-derived median-effect equation (MDEE) to linearize dose-response curves of single compounds and combinations thereof. Subsequently, it facilitates the calculation of a parameter (the CI) which is indicative for the type and strength of a combinatory effect. […] To apply the model to ALP assay data, the latter were normalized to both, the solvent control and the positive control (1 nM E2, 100% effect). MDEE fitting and CI calculations were carried out using the CISNE tool ([26]) and MS Excel. Corresponding graphs and all further statistical calculations (normal distribution, one-way ANOVA, etc.) were carried out in Origin® 2020.

Data set [2] relates to Ishikawa cells. As to the kind of experiment: Sulforhodamine B (SRB) cell viability assay. In kind it is cell-based, human. Particulars: for cytotoxicity at highest applied concentration / Onset of cytotoxicity (lowest observed effect level), LOEL: Ishikawa cells; for cytotoxicity at highest applied concentration: 48 h; for Onset of cytotoxicity (lowest observed effect level), LOEL: 48 h incubation, at least three independent SRB assays. The protocol: To ensure that effects observed in ALP assays were not caused by cytotoxicity, SRB cell viability assays were carried out in parallel. As with estrogenicity assays, 10,000 cells/well were seeded in 96-well plates, allowed to grow for 48 h and incubated with test solutions for another 48 h. Afterwards, cells were fixed by addition of 50% (v/v) trichloroacetic acid and 1 h incubation at 4°C. After 2 times washing with tab water and 2 times of washing with 1% (v/v) acetic acid, plates were dried overnight, incubated with SRB reagent for 45 min, washed twice with water, twice with 1% acetic acid and again dried overnight. Lastly, 10 mM TRIS base buffer was added to dissolve protein-bound SRB and the absorbance of each well was measured at 570 nm with a PerkinElmer Victor 3V^TM plate reader.
To ensure non-cytotoxicity and thus to exclude false reporting anti-estrogenic effects, SRB cell viability assays were carried out in parallel (Ishikawa cells, 48 h incubation) to ALP assays. The single pesticides Dic, End, Fen and Met caused cytotoxic effects at high concentrations, with the lowest observed effect doses reported in Table 3. iX lead to a loss of cellular protein at the highest applied dose of 100 μM, a concentration which was however not applied in ALP assays.

The test system of data set [3] is MCF-7 breast cancer cells. More on the design: method as in PMID 28711546. Particulars: cited from earlier work.
A short description of data set [4]: Human intervention study, pharmacokinetics of XN. In kind it is in vivo. The settings on record: plasma, 20 mg, estimated from CMax/AUC assuming standard physiological parameters, read-out: bioavailability (rough estimate). An excerpt:
(§1) An often-used justification for discarding endocrine disrupting phytoestrogens in beer as a health concern is that the low bioavailability of hop polyphenols would limit systemically achieved doses to non-hazardous concentrations. At first sight, this notion seems to be supported by pharmacokinetic studies. […] This might partially result from the additional formation of 8PN from the naturally co-occurring iX, the most prevalent prenylflavonoid in beer ([24]), within the human gut ([18]) and liver ([31]). This reaction should be regarded as a metabolic activation due to the much higher estrogenicity of the reaction product. Assuming linear kinetics, the consumption of 0.5–1 L of average-hopped beer (Table 2) could result in systemic 8PN concentrations around 0.5 nM, a dose sufficient to cause significant estrogenicity in our in vitro test system (Figure 2).

Data set [5] has as its system ER-dependent induction of ALP expression in Ishikawa cells. More on the design: method as in PMID 30283786. Particulars: cited from earlier work.
On the set-up of data set [6]: method as in PMID 24038952. Particulars: humans, 20 mg of XN; cited from earlier work.
Data set [7] relates to Ishikawa cells. Particulars: cited from earlier work.
The conditions of data set [8]: humans, extract from hops containing 0.25 mg 8PN; cited from earlier work.
Data set [9] can be described thus: Pharmacokinetics of 8PN in humans receiving an extract from hops. It is filed as in vivo. Particulars: consumption of 0.5–1 L of average-hopped beer, assuming linear kinetics.
Source text: as §1

Setting [10] is: Ishikawa cells, 48 h, scaled to 1 nM E2 = 100%.

Consider `C[C@]12CC[C@@H]3c4ccc(O)cc4C[C@@H](CCCCCCCCC[S+]([O-])CCCC(F)(F)C(F)(F)F)[C@H]3[C@@H]1CC[C@@H]2O` (stereo partly shown) [ICI 182,780, fulvestrant, reference compound], for which the “effect of co-incubation on estrogenicity of active compounds” value in [1] (co-incubation with active concentrations of the compounds) is given as “suppression of estrogenicity”.
Turning to `O=C(O)CNCP(=O)(O)O` [Glp, glyphosate], the “ER-mediated gene expression (ALP)” value in data set [1] (concentrations up to 300 μM) was “neither ER-mediated gene expression nor cytotoxicity; also recorded: did not act estrogenic”. Moreover, the cytotoxicity result in [2] (concentrations up to 300 μM) was “neither ER-mediated gene expression nor cytotoxicity”. For the same molecule, in data set [2] (up to 500 μM), the “cytotoxicity at highest applied concentration” value is listed as “no cytotoxicity”. Besides, the “concentration causing estrogen-like growth stimulation” value in data set [3] was at least 59 µM.
Turning to `COc1cc(O)c(CC=C(C)C)c2c1C(=O)CC(c1ccc(O)cc1)O2` (stereo not shown) [iX, isoxanthohumol], the “ED50 of ALP induction” value in data set [1] (setting [10]) turned out to be 342 ± 125 nM. Besides, in data set [1] (Ishikawa cells, 48 h), the “lowest concentration inducing ALP expression (starting from)” value is on record as 100 nM. The “plateau of enzymatic (ALP) activity” value in [1] is “about 75%”. Also, in data set [2], the “Onset of cytotoxicity (lowest observed effect level), LOEL” value (from here on “Onset of cytotoxicity”) stood at 100 µM.
Turning to `CNC(=O)Oc1cc(C)c(SC)c(C)c1` [Met, methiocarb], the “lowest concentration inducing ALP expression (starting from)” value in data set [1] (Ishikawa cells, 48 h) is on record as 10 nM. Further, the “Onset of cytotoxicity” value in data set [2] was 100 µM.
Turning to `COc1cc(O)c(CC=C(C)C)c(O)c1C(=O)/C=C/c1ccc(O)cc1` [XN, xanthohumol], the bioavailability in [4] was around 2%. Also, the “estrogenicity in this test system” value in data set [5] is given as “not to act estrogenic”. For the same molecule, in [6], the “area under the curve (AUC)” value was 92 ± 68 µg·h/L and the “peak plasma concentration (CMax)” value is 33 ± 7 µg/L. Also, the “cytotoxicity in this experimental setup” value in data set [7] was “non-cytotoxicity”.
For `OC(c1ccc(Cl)cc1)(c1ccc(Cl)cc1)C(Cl)(Cl)Cl` [Dic, dicofol], the “lowest concentration inducing ALP expression (starting from)” value in data set [1] (Ishikawa cells, 48 h) was determined as 10 nM. Moreover, the “Onset of cytotoxicity” value in data set [2] came to 50 µM.
In the case of `O=S1OCC2C(CO1)C1(Cl)C(Cl)=C(Cl)C2(Cl)C1(Cl)Cl` (stereo not shown) [End, endosulfan], in [1] (Ishikawa cells, 48 h), the “lowest concentration inducing ALP expression (starting from)” value is listed as 5 nM. Further, the “ED50 of ALP induction” value in data set [1] (calculated with the CISNE tool) is 12300 ± 2900 nM. Further, in [2], the “Onset of cytotoxicity” value was determined as 50 µM.
For the molecule `CC(C)=CCc1c(O)cc(O)c2c1O[C@H](c1ccc(O)cc1)CC2=O` [8PN, 8-prenylnaringenin], in data set [8], the AUC was 24.3 ± 8.9 µg·h/L, the CMax was 1.4 ± 0.3 µg/L and the Cmax was 3.8 nM. In addition, the estimated systemic concentration entry in [9] is on record as “around 0.5 nM”. Besides, in data set [1] (setting [10]), the “ED50 of ALP induction” value was found to be 2.44 ± 1.60 nM. For the same molecule, the “lowest concentration inducing ALP expression (starting from)” value in data set [1] (Ishikawa cells, 48 h) was determined as 0.5 nM. For the same molecule, in [1], the “plateau of enzymatic (ALP) activity” value is “about 75%”. Also, the “cytotoxicity at highest applied concentration” value in [2] (500 nM) is “no cytotoxicity”.
With `OC(c1ccc(Cl)cc1)(c1cncnc1)c1ccccc1Cl` (stereo not shown) [Fen, fenarimol], in data set [1] (Ishikawa cells, 48 h), the “lowest concentration inducing ALP expression (starting from)” value came to 2.5 nM. For the same molecule, the “Onset of cytotoxicity” value in [2] is 100 µM.
